We go through two substances from patent publication US6849405B2, “Translation enhancer element of the human amyloid precursor protein gene” (The Brigham and Women's Hospital, Inc., priority 1997, dated 2005).

Common to all, as to assay type: cell-based, human
In experiment [1] the test system is APP-mRNA. The experiment can be described thus: Northern blot of APP-mRNA, astrocytoma cells. To be noted: average of four Northern blot experiments. As for the experimental part:
(§1) Total RNA (10 μg) was extracted from primary astrocytes and astrocytoma cells with a RNA-STAT kit (Tel-Test). RNA samples were denatured in 50% formamide/2.2 M formaldehyde/20 mM MOPS/5 mM sodium acetate/0.5 mM EDTA, pH 7.4, at 60° C. for 10 minutes, electrophoresed on 1.0% agarose-formaldehyde gels, blotted onto Hybond-N filters and immobilized by UV crosslinking and heating filters to 80° C. Filters were prehybridized for 3 hours and hybridized overnight in a solution consisting of 50% formamide, […] denatured salmon sperm DNA, 5×SSC, 0.1% sodium dodecyl sulfate and 5×Denhardt's solution. Following hybridization, filters were washed twice for a total of 1 hour in 2×SSC/0.2% sodium dodecyl sulfate at room temperature and twice each for a total of 1 hour in 0.5×SSC/0.1% sodium dodecyl sulfate at 55° C. Equal loading was verified by ethidium bromide staining, non-specific hybridization of the ACT probe to the 28S rRNA, and by standardized hybridization to the GAPDH cDNA probe as an internal standard. The APP cDNA probe corresponded to the unique internal 1 kb fragment gel purified from the 3 kb APP cDNA (Kang et al. Nature 325: 733 (1987)), the ACT cRNA probe to a PstI/SacI fragment (536-943) in the human ACT cDNA (Chandra, et al., Biochemistry 22: 5055 (1983)) and the GAPDH probe to the human GAPDH gene (Tokunaga, et al., Cancer Res. 47: 5616 (1987)).

The subject of another experiment is pSV2CAT parental vector. The experiment can be described thus: CAT reporter activity in astrocytoma cells transfected with parental vector pSV2CAT. The protocol:
Astrocytoma and neuroblastoma cells were transfected with pSV2CAT or pSV2(APP)CAT by lipofection. Briefly, lipofectamine reagent (Boehringer) was added to DMEM (without serum) and allowed to sit 30 minutes at room temperature. Plasmids (10 μg) in an equal volume of DMEM were then added, and, after sitting for 45 minutes at room temperature, the lipid/DNA solution was added to 60% confluent cells on 100×20 mm cell culture plates. After 4 hours, this solution was removed, and the cells were washed twice in DMEM (without serum). Fresh DMEM medium (containing 10% fetal calf serum) was added. At this time, treatments were administered which included: (1) 0.5 ng/ml IL-1α; (2) 0.5 ng/ml IL-1β; (3) 5 μM Fe2TF (holo-transferrin); and (4) unstimulated controls. […]
After harvesting, cells were resuspended in 100 μl 0.25 M Tris, pH 7.8, and subjected to three cycles of freezing (liquid nitrogen) and […] (37° C.) to lyse cells. […] Protein concentration was determined by a Biorad assay, and exactly 20 μg of lysate was added to a CAT reaction mix containing 50 μl 1M Tris, pH 7.8, 20 μl acetylcoenzyme-A (3.5 mg/ml) and […] ^14C-labeled chloramphenicol (25 mCi/ml). […] For quantitative analysis, the areas on the TLC plates which aligned with dots on the film were excised and the radioactivity was counted in 5 ml of scintillation cocktail (Econofluor) using a scintillation counter (Hewlett Packard). […]

Experiment [2] has as its system alpha-1 antichymotrypsin (ACT) mRNA. In words: Northern blot of ACT-mRNA, primary astrocytes. As for the experimental part: as §1
The subject of experiment [3] is APP-mRNA. The experiment can be described thus: Northern blot of APP-mRNA, primary astrocytes. As for the experimental part:
as §1

As to interleukin-1β [IL-1β], in the experiment on APP-mRNA [1], the “increase in steady-state levels of APP-mRNAs standardized to GAPDH-mRNA” value was 30%. Besides, the “effect on CAT activity, parental vector” value with pSV2CAT parental vector is “no effect”.

Turning to interleukin-1α [IL-1α], the “increase in ACT-mRNA levels (densitometry)” value in experiment [2] was “greater than 10 fold”. In the experiment on APP-mRNA [3], the “APP-mRNA levels (Northern blot, densitometry)” value was “unchanged”.
